Results taken from EP4257135A1, “BENZIMIDAZOLE DERIVATIVES FOR PULMONARY ARTERIAL HYPERTENSION” (Justus-Liebig-Universität Gießen, priority 2022, dated 2023).

System: PAH-PCLS
Experiment: Ex vivo precision-cut lung slices (PCLS) from PAH lungs, medial wall thickness
Type: cell-based
Details: PCLS from human PAH lungs; 200 µM on days 2 and 6, fixed day 10; vessels 20-150 µm; vs DMSO
Description: Lungengewebeproben wurden von Patienten mit IPAH entnommen. Aus den mit 3% niedrigschmelzender Agarose gefüllten Lungenproben von Patienten mit IPAH wurden mit einem Vibratom (Leica Biosystems) Gewebeschnitte (400 µm dick) angefertigt. Die Lungengewebeschnitte wurden in DMEM-GlutaMAX-Medium mit 10 % fetalem Kälberserum, 1 % Penicillin/Streptomycin und 0,1 % Amphotericin B (Thermo Fisher Scientific) kultiviert, und die Behandlung wurde am zweiten Tag eingeleitet. Die Substanz SGC-CBP30 wurde in einer Konzentration von 200 µM an den Tagen 2 und 6 verabreicht. Am 10. Tag wurde das Gewebe in 4% Paraformaldehyd (Roti-Histofix; Carl Roth) fixiert und in Paraffin eingebettet. Die mediale Wanddicke wurde in allen Gefäßen mit einer Größe von 20-150 µm in den Lungenschnitten gemessen.
Das therapeutische Potenzial der EP300/CREBBP-Hemmung durch die Substanz SGC-CBP30 wurde untersucht. Dazu wurde die Wirksamkeit auf PAH-FBs und PAH-SMCs geprüft, die aus den Lungenarterien von menschlichen PAH-Patienten und aus den Lungenarterien von Ratten mit MCT-PAH (Rattenmodell mit Monocrotalin) isoliert wurden. […] Die Wirkung der EP300-Hemmung auf das vaskuläre Remodelling wurde durch Quantifizierung der prozentualen medialen Wanddicke in den mit der Substanz SGC-CBP30 inkubierten PCLS im Vergleich zu den mit DMSO inkubierten Kontrollen bewertet. […]

Question: With `COc1ccc(CCc2nc3cc(-c4c(C)noc4C)ccc3n2C[C@H](C)N2CCOCC2)cc1Cl` [SGC-CBP30, 2-[2-(3-Chloro-4-methoxyphenyl)ethyl]-5-(3,5-dimethyl-1,2-oxazol-4-yl)-1-[(S)-2-(morpholin-4-yl)propyl]-1H-benzimidazole] as the compound, how does the “mediale Wanddicke der umgestalteten PAs” value read?
Answer: Its value is “signifikante Verringerung”.
